# In US9597391B2, “Cyclic-dinucleotides and its conjugates as adjuvants and their uses in pharmaceutical compositions” (HELMHOLTZ_ZENTRUM FUER INFEKTIONSFORSCHUNG GMBH, priority 2005, dated 2017):
# How the values were obtained:
# BALB/c (H-2d) mice [1] = assay: β-gal-specific IgA in lung and vaginal lavages of immunized mice; type: in vivo; details: for β-gal-specific IgA in lung lavages: i.n. immunization, day 38, versus β-gal alone (FIG. 4, FIG. 5)
# Description: Experimental protocol: at day 38, mice were sacrificed and the final sampling was performed. Vaginal and lung lavages were obtained by flushing the organs with 1 ml of PBS supplemented with 50 mM EDTA, 0.1% BSA, and 10 mM PMSF. Lavages were then centrifuged to remove debris (10 min at 3000×g), and supernatant fluids were stored at −20° C. To determine the concentration of total IgA present in the lung and vaginal lavages, serial dilutions of the corresponding samples were incubated in microtiter plates that were previously coated with goat anti-mouse IgA (Sigma Chemie), as capture antibodies (100 μl/well). Serial dilutions of purified mouse IgA (Sigma Chemie) were used to generate a standard curve.
# To investigate the capacity of c-diGMP and c-diAMP, respectively, to stimulate mucosal responses against antigens co-administered by the i.n. and s.c. route, the production of β-gal-specific IgA in lung was analyzed (FIG. 5 for c-diAMP and FIG. 4 for c-diGMP) from immunized animals, immunized according to the protocol described in Example 2.
# spleen cells = assay: [3H]thymidine proliferation of spleen cells from vaccinated mice restimulated in vitro with β-gal; type: in vivo; details: for T cell proliferation after i.n. and s.c. administration: versus β-gal alone; for proliferation of spleen cells, i.n. immunization / proliferation of spleen cells, s.c. immunization: day 38, in vitro restimulation with β-gal; for proliferation of spleen cells, i.n. immunization: low amounts of antigen (FIG. 6); for proliferation of spleen cells, s.c. immunization: [3H]thymidine (FIG. 6)
# Description: Experimental protocol: Spleens were removed and pooled for analysis of cellular immune responses. Cells were grown in RPMI 1640 supplemented with 10% fetal calf serum, 100 U/ml of penicillin, 50 μg/ml of streptomycin, 5×10^−5 M 2-mercaptoethanol and 1 mM L-glutamine (GIBCO BRL, Karlsruhe, Germany) and maintained at 37° C. in a humidified 5% CO2 atmosphere. Spleen cell suspensions were adjusted to 5×10^6 cells/ml in complete medium, cells were seeded with 100 μl per well in a flat-bottomed 96-well microtiter plate (Nunc) and plates were incubated for 4 days in the presence of different concentrations of soluble β-gal. That is, T cell mediated immune responses were investigated at day 38 by measuring the proliferation after in vitro restimulation with β-Gal of cells which have been recovered from spleens before. Said spleen cells were obtained from vaccinated mice—said mice where immunized as described in Example 2—and incubated in the presence of different concentrations of the soluble β-Gal antigen. Each concentration was tested in quadruplicates. During the final 18 h of culture, 1 μCi of [3H]thymidine (Amersham International, Freiburg, Germany) was added to each well. Cells were then harvested on paper filters (Filtermat A; Wallac, Freiburg, Germany) by using a cell harvester (Inotech, Wohlen, Switzerland), and the amount of incorporated [3H]thymidine into the DNA of proliferating cells was determined by a β-scintillation counter (Wallac 1450, Micro-Trilux). The results are expressed as the arithmetic mean of [^3H]thymidine uptake in cpm.
# Thirty eight days following vaccination, spleens cells were purified, re-stimulated in vitro in the presence of various amounts of β-galactosidase and their proliferative capacity was estimated by measuring the incorporation of [3H]thymidine into their DNA using a β-scintillation counter.
# BALB/c (H-2d) mice [2] = assay: Isotype ELISA of β-gal-specific IgG1 and IgG2a in sera of vaccinated mice; type: in vivo
# Description: Isotyp ELISA: 96-well Nunc-Immuno MaxiSorp assay plates (Nunc, Roskilde, Denmark) were coated with 100 μl of β-gal (Boehringer, Mannheim, Germany) at 5 μg/ml in 0.05 M carbonate buffer (pH 9,6) per well. Serial two-fold dilutions of sera or lavages in PBS with 1% BSA and 0.05% Tween 20 were added (100 μl/well), and plates incubated for 2 h at 37° C. After washing, biotin-conjugated rat anti-mouse IgG1 or IgG2a (Pharmingen, Hamburg, Germany) were added to determine IgG subclasses. Plates were incubated for an additional 1 h at 37° C. After four washes, 100 μl of peroxidase-conjugated streptavidin (Pharmingen) was added to cells and plates incubated at 37° C. for 30 min. After four washes, reactions were developed with ABTS in 0.1 M citrate-phosphate buffer (pH 4.35) containing 0.01% H2O2. To determine the concentration of IgG subclasses in serum, standard curves were obtained by coating the wells with an isotype-specific goat anti-mouse IgG, and then by incubating with purified mouse IgG1 or IgG2 antibodies (Dianova, Hamburg, Germany).
# The pattern of the different subclasses of the β-gal antigen-specific IgG isotypes present in the sera of vaccinated mice is shown in FIG. 12. […] The protocol for vaccination was identical to the protocol described in Example 3. […] The data represents the average titer of a group of 5 animals.
# [3] = system: primary bone marrow-derived murine dendritic cells; assay: In vitro stimulation of primary bone marrow-derived murine dendritic cells, flow cytometry of surface markers; type: cell-based, BALB/c mice; details: 10 ng/ml c-diGMP, flow cytometry after 12 h and 24 h, versus no stimulus (FIG. 1)
# Description: Experimental protocol: primary bone marrow-derived dendritic cell cultures were obtained from BALB/c mice following in vitro maturation of precursors in the presence of recombinant GM-CSF (5×104 U/ml), according to established protocols, e.g. Link, C., etal, 2004, Eur. J. Immuol, 34(3):899-907. Mature dendritic cells were stimulated with 10 ng/ml of E. coli lypopolysaccharide (LPS) or 10 ng/ml c-diGMP. The stimulation of cells was analyzed by flow cytometry to assess the expression of surface markers which are relevant for their antigen presentation capacity after 12 h and 24 h, respectively.
# In order to identify compounds which may have potential as adjuvants for in vivo applications in the field of vaccines, a first in vitro screening based on the use of primary cultures of bone marrow-derived dendritic cells was established. Dendritic cells were selected since they represent the most efficient antigen presenting cells and they play a key role in primary immune responses. In fact, they represent the only cell type able to activate resting T cells initiating primary immune responses in vivo. […] At different time intervals, samples were taken, stained with fluorescent-labeled antibodies specific for cellular markers critical for the antigen presenting capacities of dendritic cells, and analyzed by flow cytometry.
# [4] = i.n., average titer of 5 animals (FIG. 12A)
# [5] = s.c., average titer of 5 animals (FIG. 12B)
Compound,"β-gal specific sIgA expression in vaginal lavage (BALB/c (H-2d) mice [1]; c-diAMP as adjuvant, i.n. (FIG. 5))",β-gal-specific IgA in lung lavages (BALB/c (H-2d) mice [1]),T cell proliferation after i.n. and s.c. administration (spleen cells),"proliferation of spleen cells, i.n. immunization (spleen cells)","proliferation of spleen cells, s.c. immunization (spleen cells)","β-gal specific IgG1 in sera, intranasal (BALB/c (H-2d) mice [2]; [4])","β-gal specific IgG2a in sera, intranasal (BALB/c (H-2d) mice [2]; [4])","β-gal specific IgG1 in sera, subcutaneous (BALB/c (H-2d) mice [2]; [5])","β-gal specific IgG2a in sera, subcutaneous (BALB/c (H-2d) mice [2]; [5])",expression of CD40 on dendritic cells [3],β-gal-specific IgA in lung lavages (BALB/c (H-2d) mice [1]; listed as c-dGMP),"β-gal specific sIgA expression in vaginal lavage, s.c. route (BALB/c (H-2d) mice [1]; s.c. route (not shown))"
"Nc1ncnc2c1ncn2[C@@H]1O[C@@H]2COP(=O)(O)O[C@H]3[C@@H](O)[C@H](n4cnc5c(N)ncnc54)O[C@@H]3COP(=O)(O)O[C@H]2[C@H]1O [c-diAMP, cyclic bis(3′-5′)diadenylic acid]",detectable,significant increase,statistically significant increment,efficient proliferative response,further increase in proliferation,strongly increased,strongly increased,strongly increased,strongly increased,,,
"Nc1nc2c(ncn2[C@@H]2O[C@@H]3COP(=O)(O)O[C@H]4[C@@H](O)[C@H](n5cnc6c(=O)[nH]c(N)nc65)O[C@@H]4COP(=O)(O)O[C@H]3[C@H]2O)c(=O)[nH]1 [c-diGMP, cyclic bis(3′-5′)diguanylic acid]",,higher,statistically significant increment,efficient proliferative response,further increase in proliferation,,,,,up-regulated,significant increase,does not lead to an enhanced expression
